Results as given in ChEMBL document CHEMBL1201862, “PubChem BioAssay data set” (2004).
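Grown in 96-well plates, cells were treated for 48 hours with each compound at five concentrations. Insufficient inhibition: endpoint recorded as highest concentration tested. GI50 is the concentration that inhibits growth by half.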 The source made the active and inactive calls. No stated cut-off is given here; in the data, active = GI50 up to about 1.1 µM and inactive = higher.

Assays:
Experiment in all cases: inhibition of tumour cell growth, NCI panel, 48 h
[1] = tested on: SR
[2] = tested on: IGROV-1
[3] = tested on: SNB-75
[4] = tested on: COLO 205
[5] = tested on: SK-MEL-5
[6] = tested on: OVCAR-4
[7] = tested on: MDA-N
[8] = tested on: HCT-116
[9] = tested on: OVCAR-8
[10] = tested on: SK-MEL-28
[11] = tested on: SW-620
[12] = tested on: HL-60
[13] = tested on: SK-OV-3
[14] = tested on: HCC 2998
[15] = tested on: HT-29
[16] = tested on: MDA-MB-435
[17] = tested on: SF-539
[18] = tested on: Malme-3M
[19] = tested on: SN12C
[20] = tested on: KM12
[21] = tested on: UACC-62
[22] = tested on: ACHN
[23] = tested on: OVCAR-5
[24] = tested on: SF-268
[25] = tested on: M14
[26] = tested on: CCRF-CEM
[27] = tested on: A549
[28] = tested on: NCI-H23
[29] = tested on: T47D
[30] = tested on: U-251
[31] = tested on: UACC-257
[32] = tested on: NCI-H226
[33] = tested on: RPMI-8226
[34] = tested on: HOP-62
[35] = tested on: HOP-92
[36] = tested on: Hs-578T
[37] = tested on: PC-3
[38] = tested on: MOLT-4
[39] = tested on: NCI/ADR-RES
[40] = tested on: MDA-MB-231
[41] = tested on: NCI-H460
[42] = tested on: MCF7
[43] = tested on: SNB-19
[44] = tested on: UO-31
[45] = tested on: CAKI-1
[46] = tested on: RXF 393
[47] = tested on: HCT-15
[48] = tested on: DU-145
[49] = tested on: OVCAR-3
[50] = tested on: A498
[51] = tested on: K562
[52] = tested on: NCI-H522
[53] = tested on: LOX IMVI
[54] = tested on: EKVX
[55] = tested on: SF-295
[56] = tested on: 786-0
[57] = tested on: TK-10

Which results are given for CCOC(=O)c1sc2c(c1OC(=O)c1cccs1)c(=O)n(-c1ccccc1)c(=S)n2-c1ccccc1?
GI50 [1]: 0.0151 µM (active); GI50 [2]: 12.2 µM (inactive); GI50 [3]: 83.6 µM (inactive); GI50 [4]: 17.3 µM (inactive); GI50 [5]: 13.5 µM (inactive); GI50 [6]: 11.7 µM (inactive); GI50 [7]: 30.5 µM (inactive); GI50 [8]: 5.3 µM (inactive); GI50 [9]: 18.2 µM (inactive); GI50 [10]: 11.8 µM (inactive); GI50 [11]: 19.3 µM (inactive); GI50 [12]: 15.5 µM (inactive); GI50 [13]: 18.2 µM (inactive); GI50 [14]: 16.6 µM (inactive); GI50 [15]: 3.9 µM (inactive); GI50 [16]: 11.5 µM (inactive); GI50 [17]: 16.7 µM (inactive); GI50 [18]: 12.9 µM (inactive); GI50 [19]: 18.3 µM (inactive); GI50 [20]: 16.1 µM (inactive); GI50 [21]: 15.3 µM (inactive); GI50 [22]: 15.8 µM (inactive); GI50 [23]: 22.6 µM (inactive); GI50 [24]: 29.6 µM (inactive); GI50 [25]: 12.4 µM (inactive); GI50 [26]: 5.15 µM (inactive); GI50 [27]: 12.3 µM (inactive); GI50 [28]: 15.8 µM (inactive); GI50 [29]: 23.5 µM (inactive); GI50 [30]: 12.2 µM (inactive); GI50 [31]: 27.4 µM (inactive); GI50 [32]: 20.5 µM (inactive); GI50 [33]: 7.55 µM (inactive); GI50 [34]: 21.1 µM (inactive); GI50 [35]: 24.5 µM (inactive); GI50 [36]: 23.7 µM (inactive); GI50 [37]: 12 µM (inactive); GI50 [38]: 10.7 µM (inactive); GI50 [39]: 11.1 µM (inactive); GI50 [40]: 14.9 µM (inactive); GI50 [41]: 3.63 µM (inactive); GI50 [42]: 14.9 µM (inactive); GI50 [43]: 28.6 µM (inactive); GI50 [44]: 0.175 µM (active); GI50 [45]: 33.1 µM (inactive); GI50 [46]: 24.3 µM (inactive); GI50 [47]: 14 µM; GI50 [48]: 20.5 µM (inactive); GI50 [49]: 24.7 µM (inactive); GI50 [50]: 6.4 µM (inactive); GI50 [51]: 19.9 µM (inactive); GI50 [52]: 4.69 µM (inactive); GI50 [53]: 15.7 µM (inactive); GI50 [54]: 36.9 µM (inactive); GI50 [55]: 53.2 µM (inactive); GI50 [56]: 10.6 µM (inactive); GI50 [57]: 25 µM (inactive)
